Data taken from patent publication US10881110B2, “Herbicidal compositions comprising isoxazolo[5,4-b]pyridines” (BASF SE, priority 2014, dated 2021).

Legend:
Assay in all cases: greenhouse post-emergence herbicidal test
ERICA = format: in vivo, Conyza canadensis; conditions: post emergence
Description: (§1) The culture containers used were plastic pots containing medium loamy sand with approximately 4.6% of humus and 69.9% sand as substrate. The seeds of the test plants were sown separately for each species.
(§2) For the post-emergence treatment, the test plants were grown to a plant height of from 1 to 15 cm, depending on the plant habit, and only then treated with the active compounds which had been suspended or emulsified in water. To this end, the test plants were either sown directly, and grown in the same containers, or they were first grown separately as seedlings and transplanted into the test containers a few days prior to treatment.
(§3) Depending on the species, the plants were kept at 10-25° C. and 20-35° C., respectively.
(§4) The test period extended over 1 to 3 weeks. During this time, the plants were tended and their response to the individual treatments was evaluated 20 days after treatment except mentioned otherwise.
(§5) Evaluation was carried out using a scale from 0 to 100. 100 means no emergence of the plants, or complete destruction of at least the above-ground parts, and 0 means no damage or normal course of growth.
(§6) The respective stated components A and B, and, if appropriate, C, were formulated as a 10% by weight strength emulsion concentrate and, with addition of the amount of solvent system, introduced into the spray liquor used for applying the active compound. In the examples, the solvent used was water.
(§7) In the examples below, using the method of S. R. Colby (1967) “Calculating synergistic and antagonistic responses of herbicide combinations”, Weeds 15, p. 22 ff., the value E, which is expected if the activity of the individual active compounds is only additive, was calculated. E=X+Y−(X·Y/100)

VIOAR = format: in vivo, Viola arvensis; set-up: key to herbicidal activity against VIOAR found / herbicidal activity against VIOLA found: rating on a scale from 0 to 100; conditions: post emergence
Description: as §1, §2, §3, §4, §5, §6, §7

IPOHE = format: in vivo, Ipomoea hederacea; set-up: key to herbicidal activity against IPOHE found: rating on a scale from 0 to 100; conditions: post emergence
Description: as §1, §2, §3, §4, §5, §6, §7

ALOMY = format: in vivo, Alopecurus myosuroides; set-up: key to herbicidal activity against ALOMY found: rating on a scale from 0 to 100; conditions: post emergence
Description: as §1, §2, §3, §4, §5, §6, §7

ABUTH = format: in vivo, Abutilon theophrast; set-up: key to herbicidal activity against ABUTH found: rating on a scale from 0 to 100; conditions: post emergence
Description: as §1, §2, §3, §4, §5, §6, §7

POLCO = format: in vivo, Polygonum convolvulus; set-up: key to herbicidal activity against POLCO found: rating on a scale from 0 to 100; conditions: post emergence
Description: as §1, §2, §3, §4, §5, §6, §7

APESV = format: in vivo, Apera spica-venti; set-up: key to herbicidal activity against APESV found: rating on a scale from 0 to 100; conditions: post emergence
Description: as §1, §2, §3, §4, §5, §6, §7

GALAP = format: in vivo, Galium aparine; set-up: key to herbicidal activity against GALAP found: rating on a scale from 0 to 100; conditions: post emergence
Description: as §1, §2, §3, §4, §5, §6, §7

MATCH = format: in vivo, Matricaria recutita; set-up: key to herbicidal activity against MATCH found: rating on a scale from 0 to 100; conditions: post emergence
Description: as §1, §2, §3, §4, §5, §6, §7

KCHSC = format: in vivo, Kochia scoparia; set-up: key to herbicidal activity against KCHSC found: rating on a scale from 0 to 100; conditions: post emergence, g/ha a.i.: I.1 31.25
Description: as §1, §2, §3, §4, §5, §6, §7

GERDI = format: in vivo, Geranium dissectum; set-up: key to herbicidal activity against GERDI found: rating on a scale from 0 to 100; conditions: post emergence
Description: as §1, §2, §3, §4, §5, §6, §7

CONAR = format: in vivo, Convolvulus arvensis; set-up: key: rating on a scale from 0 to 100; conditions: application rate a.i.: I.1 62.5 g/ha, B.30 (imazamox) 3.75 g/ha, alone or as mixture (composition 1.030)
Description: as §1, §2, §3, §4, §5, §6, §7

[1] = g/ha a.i.: I.1 31.25, B.24 2, mixture 31.25+2
[2] = g/ha a.i.: I.1 125, B.24 2, mixture 125+2
[3] = g/ha a.i.: I.1 31.25, B.24 1, mixture 31.25+1
[4] = application rate a.i.: I.1 62.5 g/ha, B.30 (imazamox) 3.75 g/ha, alone or as mixture (composition 1.030)

CC1(C)CON(Cc2ccccc2Cl)C1=O [B.97, clomazone]
pest or weed control at 375 g/ha (ERICA; Erigeron canadensis, post-emergence, 480 h, B.97 alone 375 g/ha a.i., read-out: herbicidal activity against ERICA found): 50%
pest or weed control at 750 g/ha (ERICA; Erigeron canadensis, post-emergence, 480 h, B.97 alone 750 g/ha a.i., read-out: herbicidal activity against ERICA found): 65%
pest or weed control at 375 g/ha (VIOAR; Viola arvensis, post-emergence, B.97 alone 375 g/ha a.i., read-out: herbicidal activity against VIOAR found): 85%
pest or weed control at 750 g/ha (IPOHE; Ipomoea hederacea, post-emergence, 480 h, B.97 alone 750 g/ha a.i., read-out: herbicidal activity against IPOHE found): 45%
pest or weed control at 375 g/ha (ALOMY; Alopecurus myosuroides, post-emergence, 480 h, B.97 alone 375 g/ha a.i., read-out: herbicidal activity against ALOMY found): 45%
pest or weed control at 750 g/ha (ALOMY; Alopecurus myosuroides, post-emergence, 480 h, B.97 alone 750 g/ha a.i., read-out: herbicidal activity against ALOMY found): 60%

CCSC(C)CC1CC(=O)C(/C(CC)=N/OC/C=C/Cl)=C(O)C1 (stereo not drawn) [B.1, clethodim]
herbicidal activity against ERICA found (ERICA; applied alone at 12 g/ha a.i.): 0
herbicidal activity against ABUTH found (ABUTH; applied alone at 6 g/ha a.i.): 0
herbicidal activity against ABUTH found (ABUTH; applied alone at 12 g/ha a.i.): 25
herbicidal activity against POLCO found (POLCO; applied alone at 6 g/ha a.i.): 0
herbicidal activity against APESV found (APESV; applied alone at 6 g/ha a.i.): 75
herbicidal activity against GALAP found (GALAP; applied alone at 12 g/ha a.i.): 0

COc1cc(OC)nc(NC(=O)NS(=O)(=O)Nc2ccccc2C(=O)C2CC2)n1 [B.24, cyclosulfamuron]
herbicidal activity against MATCH found (MATCH; [1]): 65
herbicidal activity against MATCH found (MATCH; [2]): 65
herbicidal activity against KCHSC found (KCHSC; B.24 1, mixture 31.25+1): 45
herbicidal activity against KCHSC found (KCHSC; B.24 2, mixture 31.25+2): 45
herbicidal activity against ABUTH found (ABUTH; [1]): 85
herbicidal activity against IPOHE found (IPOHE; [3]): 75
herbicidal activity against ALOMY found (ALOMY; g/ha a.i.: I.1 125, B.24 1, mixture 125+1): 25
herbicidal activity against ALOMY found (ALOMY; [2]): 35
herbicidal activity against APESV found (APESV; [3]): 0

CCCC(=NOCC(C)Oc1ccc(Cl)cc1)C1=C(O)CC(C2CCCSC2)CC1=O (stereo not drawn) [B.9, profoxydim]
herbicidal activity against ABUTH found (ABUTH; applied alone at 6 g/ha a.i.): 0
herbicidal activity against ABUTH found (ABUTH; applied alone at 12 g/ha a.i.): 40
herbicidal activity against ALOMY found (ALOMY; applied alone at 12 g/ha a.i.): 25
herbicidal activity against POLCO found (POLCO; applied alone at 12 g/ha a.i.): 0
herbicidal activity against APESV found (APESV; applied alone at 6 g/ha a.i.): 15
herbicidal activity against APESV found (APESV; applied alone at 12 g/ha a.i.): 55

CCC/C(=N\OCC)C1=C(O)CC(C2CCCSC2)CC1=O (stereo not drawn) [cycloxidim]
herbicidal activity against VIOAR found (VIOAR; single active, 2.5 g/ha a.i.): 0
herbicidal activity against MATCH found (MATCH; single active, 5 g/ha a.i.): 65
herbicidal activity against GERDI found (GERDI; single active, 2.5 g/ha a.i.): 0
herbicidal activity against GERDI found (GERDI; single active, 5 g/ha a.i.): 20
herbicidal activity against APESV found (APESV; single active, 5 g/ha a.i.): 30
herbicidal activity against GALAP found (GALAP; single active, 5 g/ha a.i.): 25

COCc1cnc(C2=NC(C)(C(C)C)C(=O)N2)c(C(=O)O)c1 (stereo not drawn) [B.30, imazamox]
herbicidal activity against VIOAR found (VIOAR; [4]): 45
herbicidal activity against CONAR found (CONAR): 85
herbicidal activity against GERDI found (GERDI; [4]): 90
